Results reported in ChEMBL document CHEMBL1201862, “PubChem BioAssay data set” (2004).
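All cell lines were grown in 96-well plates and treated with compound for 48 hours. GI50 marks 50% less growth.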 Activity calls are given as the source filed them. Rule as the data show it: active = GI50 up to about 1.1 µM and inactive = higher.

How the values were obtained:
Assay in all cases: NCI anticancer screen, dose series, 48 h
SK-OV-3 = test system: SK-OV-3
OVCAR-4 = test system: OVCAR-4
HOP-62 = test system: HOP-62
HT-29 = test system: HT-29
UACC-257 = test system: UACC-257
A549 = test system: A549
NCI-H460 = test system: NCI-H460
RXF 393 = test system: RXF 393
TK-10 = test system: TK-10
ACHN = test system: ACHN
SF-295 = test system: SF-295
HCT-116 = test system: HCT-116
EKVX = test system: EKVX
NCI-H23 = test system: NCI-H23
NCI-H226 = test system: NCI-H226
NCI-H522 = test system: NCI-H522
COLO 205 = test system: COLO 205
A498 = test system: A498
KM12 = test system: KM12
MCF7 = test system: MCF7

Measured: GI50

CCCCn1cc[n+](-c2nc3ccccc3n2C)c1
inactive: SK-OV-3 > 100 µM | OVCAR-4 > 100 µM | HOP-62 > 100 µM | HT-29 > 100 µM | UACC-257 > 100 µM | A549 > 100 µM | NCI-H460 > 100 µM | RXF 393 > 100 µM | TK-10 > 100 µM | ACHN > 100 µM | SF-295 > 100 µM | HCT-116 > 100 µM | EKVX > 100 µM | NCI-H23 > 100 µM | NCI-H226 > 100 µM | NCI-H522 > 100 µM

COc1ccc(C(O)/C(=N\NC(N)=S)c2nc3ccc([N+](=O)[O-])cc3nc2O)cc1OC (configuration not stated)
inactive: SK-OV-3 > 100 µM | OVCAR-4 > 100 µM | COLO 205 > 100 µM | HOP-62 > 100 µM | HT-29 > 100 µM | UACC-257 64.3 µM | A549 > 100 µM | NCI-H460 > 100 µM | RXF 393 > 100 µM | A498 > 100 µM | TK-10 > 100 µM | ACHN > 100 µM | SF-295 > 100 µM | KM12 > 100 µM | EKVX > 100 µM | NCI-H23 > 100 µM | NCI-H226 > 100 µM | NCI-H522 32.4 µM

COC1=C(OC)C(=O)c2cc(SC)c(=O)c(SC)cc2C1=O
inactive: SK-OV-3 36.4 µM | OVCAR-4 12.2 µM | COLO 205 > 100 µM | HOP-62 15 µM | HT-29 > 100 µM | UACC-257 6.65 µM | A549 22.6 µM | NCI-H460 45.5 µM | RXF 393 4.9 µM | A498 24.5 µM | TK-10 59 µM | ACHN 12.8 µM | SF-295 15.7 µM | HCT-116 20 µM | KM12 96.4 µM | EKVX 21.2 µM | NCI-H23 5.75 µM | NCI-H226 13.5 µM | NCI-H522 17.1 µM

ClCCCN1CCCCC1CCl (configuration not stated)
inactive: SK-OV-3 > 100 µM | OVCAR-4 > 100 µM | COLO 205 > 100 µM | HOP-62 90.8 µM | HT-29 > 100 µM | A549 > 100 µM | NCI-H460 10.2 µM | RXF 393 > 100 µM | A498 > 100 µM | TK-10 > 100 µM | ACHN 48.6 µM | SF-295 70.1 µM | HCT-116 > 100 µM | KM12 > 100 µM | NCI-H23 65.3 µM | NCI-H522 > 100 µM

COc1cc2c(cc1OC)C1Cc3cc(OC)c(OC)cc3C(C2)O1
inactive: SK-OV-3 > 100 µM | OVCAR-4 > 100 µM | COLO 205 > 100 µM | HOP-62 > 100 µM | HT-29 > 100 µM | UACC-257 > 100 µM | A549 > 100 µM | NCI-H460 > 100 µM | RXF 393 > 100 µM | TK-10 > 100 µM | ACHN > 100 µM | SF-295 95.7 µM | HCT-116 > 100 µM | KM12 > 100 µM | EKVX > 100 µM | NCI-H23 > 100 µM | MCF7 > 100 µM | NCI-H226 > 100 µM

CCOC(=O)C1=C(c2ccccc2)N(C(C)=O)Cc2ccccc21
inactive: SK-OV-3 29.9 µM | OVCAR-4 16.7 µM | COLO 205 15.9 µM | HOP-62 19.6 µM | HT-29 16.3 µM | UACC-257 16.9 µM | A549 18.4 µM | NCI-H460 14.3 µM | RXF 393 19.4 µM | TK-10 45.3 µM | ACHN 16.1 µM | SF-295 13.9 µM | HCT-116 14.5 µM | KM12 15 µM | EKVX 29.6 µM | NCI-H23 12.6 µM | NCI-H226 14.9 µM | NCI-H522 16.9 µM

Cc1cc(C)c(NC(=O)/C=C/c2ccccc2)c(C)c1
inactive: SK-OV-3 > 100 µM | OVCAR-4 94.6 µM | HOP-62 38.9 µM | HT-29 > 100 µM | UACC-257 > 100 µM | A549 > 100 µM | NCI-H460 > 100 µM | RXF 393 > 100 µM | TK-10 > 100 µM | ACHN 80.2 µM | SF-295 87.1 µM | KM12 > 100 µM | EKVX > 100 µM | NCI-H23 > 100 µM | MCF7 > 100 µM | NCI-H226 > 100 µM | NCI-H522 6 µM

N#CCCN(c1ccc(/C=N/c2cccc([N+](=O)[O-])c2)cc1)S(=O)(=O)c1ccccc1
inactive: SK-OV-3 > 100 µM | OVCAR-4 > 100 µM | COLO 205 > 100 µM | HOP-62 > 100 µM | HT-29 > 100 µM | UACC-257 > 100 µM | A549 > 100 µM | A498 > 10 µM | TK-10 > 100 µM | SF-295 > 100 µM | HCT-116 > 100 µM | KM12 > 100 µM | EKVX > 100 µM | NCI-H23 > 100 µM | NCI-H226 56.9 µM | NCI-H522 > 100 µM

c1ccc(Nc2nnc(-c3nsc4ccccc34)o2)cc1
inactive: OVCAR-4 41 µM | COLO 205 > 100 µM | HOP-62 32.9 µM | HT-29 > 100 µM | UACC-257 > 100 µM | A549 > 100 µM | NCI-H460 62.1 µM | RXF 393 51.5 µM | TK-10 > 100 µM | ACHN 75.3 µM | HCT-116 74.1 µM | KM12 > 100 µM | EKVX 51.3 µM | NCI-H23 91.4 µM
